# Results: patent US10758516B2, “Methods and compositions for the treatment of gliomas” (University of Cincinnati, priority 2017, dated 2020)
# Assays:
# EP2 receptor [1] = target: T1, EP2 receptor (Homo sapiens, UniProt P43116); test: PGE2-mediated cAMP signaling in SF767 glioma cells; assay type: cell-based; conditions: for PGE2-promoted cAMP synthesis: antagonist 1 μM and 10 μM, n=5
# T1 construct: endogenous in cells; host or cells: SF767 human glioblastoma cells
# From the text: (§1) FIG. 1. Bar graph showing PGE2 mediated cAMP signaling via EP2 receptor in human malignant glioma cells LN229 (top) and SF767 (bottom).
# (§2) (n=5, *P<0.05; ***P<0.001, one-way ANOVA and post-hoc Bonferroni test). Data are shown as mean+SEM.
# EP2 receptor [2] = target: T1, EP2 receptor; test: PGE2-mediated cAMP signaling in LN229 glioma cells; assay type: cell-based; conditions: for PGE2-promoted cAMP synthesis: antagonist 1 μM and 10 μM, n=5
# From the text: as §1, §2
# human GBM cells SF767 = test: Cell invasion of COX-2-overexpressing SF767 cells; assay type: cell-based; conditions: 10 μM, measured after 48 h, n=4, P<0.01 vs control
# GBM cells LN229 = test: Wound closure (migration) of COX-2-overexpressing LN229 cells; assay type: cell-based, human; conditions: 10 μM, n=3, compared with COX-2 overexpression group
# [3] = system: flank tumors formed by human GBM cells SF767; test: Flank (subcutaneous) tumor xenograft in athymic nude mice; assay type: in vivo; conditions: 10 mg/kg, p.o., b.i.d.; measured 4 weeks after xenograft surgery; n=7, P<0.05
# From the text: FIG. 4. Bar graph comparing flank tumor size in athymic nude mice treated with vehicle versus mice treated with TG6-10-1 measured 4 weeks after xenograft surgery.
# Data are shown as mean+SEM.
# [4] = system: intracranial tumors formed by human GBM cells LN229; test: Intracranial (orthotopic) tumor xenograft in athymic nude mice; assay type: in vivo
# From the text: FIG. 8. Graph showing that the survival rate of mice harboring intracranial tumors derived from human GBM cells LN229 receiving TG6-10-1 is greater than the survival rate of mice receiving vehicle only.
# Data are shown as mean±SEM.
# Survival rates of mice that harbored intracranial tumors derived from human GBM cells LN229 after receiving vehicle (n=20) or TG6-10-1 (n=28) for 28 days (P=2.835E-4 Kaplan-Meier survival analysis with post-hoc log-rank test).
# [5] = concentration-dependent, forskolin 100 μM
# T1 sequence (P43116 whole entry): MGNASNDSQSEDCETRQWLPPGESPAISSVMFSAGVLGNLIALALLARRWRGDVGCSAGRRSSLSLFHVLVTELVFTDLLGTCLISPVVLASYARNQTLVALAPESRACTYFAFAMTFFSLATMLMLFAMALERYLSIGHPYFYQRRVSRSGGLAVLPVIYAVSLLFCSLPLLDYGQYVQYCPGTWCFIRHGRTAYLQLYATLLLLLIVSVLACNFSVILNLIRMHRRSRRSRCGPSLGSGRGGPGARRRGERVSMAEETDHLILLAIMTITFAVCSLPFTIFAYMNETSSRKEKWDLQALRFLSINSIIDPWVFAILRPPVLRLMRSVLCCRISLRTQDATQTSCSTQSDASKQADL
cAMP levels (EP2 receptor [1]; [5]),cAMP levels (EP2 receptor [2]; [5]),SMILES,cell invasion increased by COX-2 overexpression (human GBM cells SF767),PGE2-promoted cAMP synthesis (EP2 receptor [1]),PGE2-promoted cAMP synthesis (EP2 receptor [2]),wound closure increased by COX-2 overexpression (GBM cells LN229),growth of flank tumors [3],"growth of intracranial tumors ([4]; 10 mg/kg, p.o., b.i.d., bioluminescence weekly, n=7, P<0.01)","survival of mice harboring intracranial tumors ([4]; treatment for 28 days, vehicle n=20, TG6-10-1 n=28, P=2.835E-4, Kaplan-Meier, log-rank)"
increases cAMP levels,increases cAMP levels,"CCCCC[C@H](O)/C=C/[C@H]1[C@H](O)CC(=O)[C@@H]1C/C=C\CCCC(=O)O [PGE2, Prostaglandin E2, reference compound]",–,–,–,–,–,–,–
–,–,COc1cc(/C=C/C(=O)NCCn2c(C)cc3ccccc32)cc(OC)c1OC [TG4-155],attenuated,largely blocked,largely blocked,attenuated,–,–,–
–,–,COc1cc(/C=C/C(=O)NCCn2c(C(F)(F)F)cc3ccccc32)cc(OC)c1OC [TG6-10-1],attenuated,largely blocked,largely blocked,attenuated,reduced the growth,reduced the growth,improved survival
